Where “and” joins values, the source holds several entries; their conditions need not be identical. Identical values can stand only once. Like-named read-outs stand apart in the source and are kept apart here. Values belong to the compound of their own block, whether it stands above or below them.
How the values were obtained:
[1] = amide bond, 13-membered ring, CDMT/NMM
[2] = target: T1, CFTR (F508del/MF-HBE cells) (Homo sapiens, UniProt P13569, DEL508-508); test: Ussing chamber assay of CFTR-mediated short-circuit currents, Assay D (single concentration of 1 μM); assay type: cell-based; details: with 44 nM potentiator and 18 μM Tezacaftor, 18-24 hours, 20% human serum
T1 construct: human bronchial epithelial (HBE) cells derived from CF subjects heterozygous for F508del and a minimal function CFTR mutation (F508del/MF-HBE); endogenous in cells; host or cells: Primary human bronchial epithelial cells from CF subjects (F508del/MF genotype), differentiated at an air-liquid interface
T1 sequence (P13569 with tags, fused parts or gaps DEL508-508): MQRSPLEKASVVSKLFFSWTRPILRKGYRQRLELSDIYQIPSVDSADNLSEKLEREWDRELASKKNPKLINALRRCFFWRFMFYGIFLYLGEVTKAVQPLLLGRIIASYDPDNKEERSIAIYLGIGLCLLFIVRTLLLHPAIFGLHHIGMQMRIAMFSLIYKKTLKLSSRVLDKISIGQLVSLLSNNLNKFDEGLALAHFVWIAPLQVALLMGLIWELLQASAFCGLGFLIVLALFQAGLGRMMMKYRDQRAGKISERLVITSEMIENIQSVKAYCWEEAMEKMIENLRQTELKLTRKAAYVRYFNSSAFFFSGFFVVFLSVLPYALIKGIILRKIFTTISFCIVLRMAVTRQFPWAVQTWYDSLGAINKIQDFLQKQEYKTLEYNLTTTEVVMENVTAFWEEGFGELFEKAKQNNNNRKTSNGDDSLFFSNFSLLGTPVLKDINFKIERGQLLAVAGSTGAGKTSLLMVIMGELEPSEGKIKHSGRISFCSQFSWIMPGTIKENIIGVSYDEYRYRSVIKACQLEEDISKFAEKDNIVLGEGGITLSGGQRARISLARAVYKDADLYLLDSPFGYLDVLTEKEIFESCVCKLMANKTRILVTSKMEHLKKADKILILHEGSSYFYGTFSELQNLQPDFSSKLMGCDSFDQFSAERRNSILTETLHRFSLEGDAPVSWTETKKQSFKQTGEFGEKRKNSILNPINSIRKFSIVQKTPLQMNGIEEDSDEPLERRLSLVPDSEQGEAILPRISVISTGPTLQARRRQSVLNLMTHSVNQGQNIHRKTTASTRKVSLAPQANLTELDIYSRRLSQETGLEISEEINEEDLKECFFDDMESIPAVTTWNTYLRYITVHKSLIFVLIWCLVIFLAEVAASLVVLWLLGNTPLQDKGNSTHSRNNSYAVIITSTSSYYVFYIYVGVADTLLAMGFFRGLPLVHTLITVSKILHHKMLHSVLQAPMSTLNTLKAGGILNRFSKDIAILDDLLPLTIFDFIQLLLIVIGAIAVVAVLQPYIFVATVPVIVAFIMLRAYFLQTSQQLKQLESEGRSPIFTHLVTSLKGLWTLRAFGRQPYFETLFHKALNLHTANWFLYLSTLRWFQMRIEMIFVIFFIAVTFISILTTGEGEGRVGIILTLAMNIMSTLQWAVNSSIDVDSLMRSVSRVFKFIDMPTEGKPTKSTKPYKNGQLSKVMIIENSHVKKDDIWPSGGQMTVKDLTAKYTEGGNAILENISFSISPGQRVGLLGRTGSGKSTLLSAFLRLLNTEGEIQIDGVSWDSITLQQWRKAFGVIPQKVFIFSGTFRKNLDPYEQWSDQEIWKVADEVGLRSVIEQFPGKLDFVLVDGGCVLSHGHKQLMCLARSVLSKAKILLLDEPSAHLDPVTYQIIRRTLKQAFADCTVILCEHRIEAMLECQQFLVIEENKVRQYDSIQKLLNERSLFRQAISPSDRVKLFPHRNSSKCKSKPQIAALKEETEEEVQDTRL
Summary of the method: (§1)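 F508del/MF-HBE cells grown at air-liquid interface were incubated 18-24 h at 37 °C in 20% human serum with correctors plus 18 μM tezacaftor and a fixed partner compound (33 nM for concentration series, 44 nM at 1 μM). ISC was read at 0 mV after 20 μM forskolin, minus the post-inhibitor current.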

[3] = target: T1, CFTR (F508del/MF-HBE cells); test: Ussing chamber assay of CFTR-mediated short-circuit currents, Assay C (0.026 μM to 25 μM, 6 concentrations); assay type: cell-based; details: with 33 nM potentiator and 18 μM Tezacaftor, 20% human serum; for Emax: read-out: C Max activity (%)
Summary of the method: as §1

D activity at 1 μM (%) [2]: +++ (+++ is >60%)
Structure (SMILES): Cc1cccc(C)c1-c1cc2nc(n1)NS(=O)(=O)c1cccc(c1)C(=O)N(Cc1cnc3oc(C(C)C)cc3n1)[C@H](CC1CCCOC1)CO2 (single isomer, unassigned) [Compound I-66]
ring closure, yield after HPLC ([1]; from Cc1cccc(C)c1-c1cc(OC[C@@H](CC2CCCOC2)NCc2cnc3oc(C(C)C)cc3n2)nc(NS(=O)(=O)c2cccc(C(=O)O)c2)n1, DMF, 11.8 mM, 72.5 h): 17% and 20%

D activity at 1 μM (%) [2]: +++ (+++ is >60%)
Structure (SMILES): COc1c2nc(nc1-c1c(C)cccc1C)NS(=O)(=O)c1cccc(c1)C(=O)N(Cc1cnc3oc(C(C)C)cc3n1)[C@H](CC(C)(C)C)CC2 [Compound I-157, (11S)-6-(2,6-Dimethylphenyl)-11-(2,2-dimethylpropyl)-12-[(6-isopropylfuro[2,3-b]pyrazin-2-yl)methyl]-7-methoxy-2,2-dioxo-2λ^6-thia-3,5,12,19-tetrazatricyclo[12.3.1.14,8]nonadeca-1(18),4(19),5,7,14,16-hexaen-13-one]
ring closure, yield after HPLC ([1]; from COc1c(CC[C@@H](CC(C)(C)C)NCc2cnc3oc(C(C)C)cc3n2)nc(NS(=O)(=O)c2cccc(C(=O)O)c2)nc1-c1c(C)cccc1C, DMF, 11.0 mM, 3.5 h): 62%

D activity at 1 μM (%) [2]: +++ (+++ is >60%)
Structure (SMILES): Cc1cccc(C)c1-c1cc2nc(n1)NS(=O)(=O)c1cccc(c1)C(=O)N(Cc1cnc3nc(C(C)C)oc3n1)[C@H](CC1(C)CC1)CO2 [Compound I-159, (11R)-6-(2,6-Dimethylphenyl)-12-[(2-isopropyloxazolo[4,5-b]pyrazin-6-yl)methyl]-11-[(I-methylcyclopropyl)methyl]-2,2-dioxo-9-oxa-2λ^6-thia-3,5,12,19-tetrazatricyclo[12.3.1.14,8]nonadeca-1(18),4(19),5,7,14,16-hexaen-13-one]
ring closure, yield after HPLC ([1]; from Cc1cccc(C)c1-c1cc(OC[C@@H](CC2(C)CC2)NCc2cnc3nc(C(C)C)oc3n2)nc(NS(=O)(=O)c2cccc(C(=O)O)c2)n1, DMF, 26.6 mM, 2.08 h): 26%

D activity at 1 μM (%) [2]: +++ (+++ is >60%)
Structure (SMILES): Cc1cccc(C)c1-c1cc2nc(n1)NS(=O)(=O)c1cccc(c1)C(=O)N(Cc1cnc3oc(C(C)C)c(Cl)c3n1)[C@H](CC1(C)CC1)CO2 [Compound I-161, (11R)-12-[(7-chloro-6-isopropyl-furo[2,3-b]pyrazin-2-yl)methyl]-6-(2,6-dimethylphenyl)-11-[(1-methylcyclopropyl)methyl]-2,2-dioxo-9-oxa-2λ^6-thia-3,5,12,19-tetrazatricyclo[12.3.1.14,8]nonadeca-1(18),4(19),5,7,14,16-hexaen-13-one]
ring closure, yield after HPLC ([1]; from Cc1cccc(C)c1-c1cc(OC[C@@H](CC2(C)CC2)NCc2cnc3oc(C(C)C)c(Cl)c3n2)nc(NS(=O)(=O)c2cccc(C(=O)O)c2)n1, DMF, 14.9 mM, 19.0 h): 54%

D activity at 1 μM (%) [2]: +++ (+++ is >60%)
Structure (SMILES): Cc1cccc(C)c1-c1cc2nc(n1)NS(=O)(=O)c1cccc(c1)C(=O)N(Cc1cnc3oc(C(C)C)c(NC(=O)OC(C)(C)C)c3n1)[C@H](CC1(C)CC1)CO2 [Compound I-210, tert-Butyl N-[2-[[(11R)-6-(2,6-dimethylphenyl)-11-[(1-methylcyclopropyl)methyl]-2,2,13-trioxo-9-oxa-2λ^6-thia-3,5,12,19-tetrazatricyclo[12.3.1.14,8]nonadeca-1(18),4(19),5,7,14,16-hexaen-12-yl]methyl]-6-isopropyl-furo[2,3-b]pyrazin-7-yl]carbamate]
ring closure, yield after HPLC ([1]; from Cc1cccc(C)c1-c1cc(OC[C@@H](CC2(C)CC2)NCc2cnc3oc(C(C)C)c(NC(=O)OC(C)(C)C)c3n2)nc(NS(=O)(=O)c2cccc(C(=O)O)c2)n1, DMF, 13.4 mM, 5.5 h): 55%

Further lines, the compound ahead of its results:

Structure (SMILES): Cc1cccc(C)c1-c1cc2nc(n1)NS(=O)(=O)c1cccc(c1)C(=O)N(Cc1cnc3oc(C(C)C)c(C(F)(F)F)c3n1)[C@H](CC1(C)CC1)CO2 [Compound I-126, (11R)-6-(2,6-dimethylphenyl)-12-[[6-isopropyl-7-(trifluoromethyl)furo[2,3-b]pyrazin-2-yl]methyl]-11-[(1-methylcyclopropyl)methyl]-2,2-dioxo-9-oxa-2λ^6-thia-3,5,12,19-tetrazatricyclo[12.3.1.14,8]nonadeca-1(18),4(19),5,7,14,16-hexaen-13-one]
ring closure, yield after HPLC ([1]; from Cc1cccc(C)c1-c1cc(OC[C@@H](CC2(C)CC2)NCc2cnc3oc(C(C)C)c(C(F)(F)F)c3n2)nc(NS(=O)(=O)c2cccc(C(=O)O)c2)n1, DMF, 12.1 mM, 16.5 h): 36%
D activity at 1 μM (%) [2]: +++ (+++ is >60%)

Structure (SMILES): Cc1cccc(C)c1-c1cc2nc(n1)NS(=O)(=O)c1cccc(c1)C(=O)N(Cc1cnc3oc(C(C)C)nc3n1)[C@H](CC1(C)CC1)CO2 [Compound I-149, (11R)-6-(2,6-Dimethylphenyl)-12-[(2-isopropyloxazolo[4,5-b]pyrazin-5-yl)methyl]-11-[(1-methylcyclopropyl)methyl]-2,2-dioxo-9-oxa-2λ^6-thia-3,5,12,19-tetrazatricyclo[12.3.1.14,8]nonadeca-1(18),4(19),5,7,14,16-hexaen-13-one]
ring closure, yield after HPLC ([1]; from Cc1cccc(C)c1-c1cc(OC[C@@H](CC2(C)CC2)NCc2cnc3oc(C(C)C)nc3n2)nc(NS(=O)(=O)c2cccc(C(=O)O)c2)n1, DMF, 23.5 mM, 2.08 h): 40%
D activity at 1 μM (%) [2]: +++ (+++ is >60%)

Structure (SMILES): Cc1cccc(C)c1-c1cc2nc(n1)NS(=O)(=O)c1cccc(c1)C(=O)N(Cc1cnc3oc(C4CC4)cc3n1)[C@H](C=C1CCC1)CO2 [Compound I-154, (11R)-11-(cyclobutylidenemethyl)-12-[(6-cyclopropylfuro[2,3-b]pyrazin-2-yl)methyl]-6-(2,6-dimethylphenyl)-2,2-dioxo-9-oxa-2λ^6-thia-3,5,12,19-tetrazatricyclo[12.3.1.14,8]nonadeca-1(18),4(19),5,7,14,16-hexaen-13-one]
ring closure, yield after HPLC ([1]; from Cc1cccc(C)c1-c1cc(OC[C@@H](C=C2CCC2)NCc2cnc3oc(C4CC4)cc3n2)nc(NS(=O)(=O)c2cccc(C(=O)O)c2)n1, DMF, 25.1 mM, 2.08 h): 14%
D activity at 1 μM (%) [2]: +++ (+++ is >60%)

Structure (SMILES): Cc1cccc(C)c1-c1cc2nc(n1)NS(=O)(=O)c1cccc(c1)C(=O)N(Cc1cnc3nc(C4CC4)n(C)c3n1)[C@H](CC13CC(C1)C3)CO2 [Compound I-175, (11R)-11-(1-Bicyclo[1.1.1]pentanylmethyl)-12-[(2-cyclopropyl-3-methyl-imidazo[4,5-b]pyrazin-5-yl)methyl]-6-(2,6-dimethylphenyl)-2,2-dioxo-9-oxa-2λ^6-thia-3,5,12,19-tetrazatricyclo[12.3.1.14,8]nonadeca-1(18),4(19),5,7,14,16-hexaen-13-one]
ring closure, yield after HPLC ([1]; from Cc1cccc(C)c1-c1cc(OC[C@@H](CC23CC(C2)C3)NCc2cnc3nc(C4CC4)n(C)c3n2)nc(NS(=O)(=O)c2cccc(C(=O)O)c2)n1, DMF, 11.1 mM, 16.5 h): 28%
D activity at 1 μM (%) [2]: +++ (+++ is >60%)

Structure (SMILES): Cc1cccc(C)c1-c1cc2nc(n1)NS(=O)(=O)c1cccc(c1)C(=O)N(Cc1cnc3oc(C4CC4)cc3n1)[C@H](Cc1ccccc1)CO2 [Compound I-191, (11R)-11-Benzyl-12-[(6-cyclopropylfuro[2,3-b]pyrazin-2-yl)methyl]-6-(2,6-dimethylphenyl)-2,2-dioxo-9-oxa-2λ^6-thia-3,5,12,19-tetrazatricyclo[12.3.1.14,8]nonadeca-1(18),4(19),5,7,14,16-hexaen-13-one]
ring closure, yield after HPLC ([1]; from Cc1cccc(C)c1-c1cc(OC[C@@H](Cc2ccccc2)NCc2cnc3oc(C4CC4)cc3n2)nc(NS(=O)(=O)c2cccc(C(=O)O)c2)n1, DMSO, 2.75 h): 60%
D activity at 1 μM (%) [2]: +++ (+++ is >60%)

Structure (SMILES): Cc1cccc(C)c1-c1cc2nc(n1)NS(=O)(=O)c1cccc(c1)C(=O)N(Cc1cnc3cc(C(C)(C)C)n(C)c3n1)[C@H](C[C@H]1CCC(C)(C)O1)CO2 [IV-98, (11R)-12-[(6-tert-butyl-5-methyl-pyrrolo[2,3-b]pyrazin-3-yl)methyl]-6-(2,6-dimethylphenyl)-11-[[(2R)-5,5-dimethyltetrahydrofuran-2-yl]methyl]-2,2-dioxo-9-oxa-2λ^6-thia-3,5,12,19-tetrazatricyclo[12.3.1.14,8]nonadeca-1(18),4(19),5,7,14,16-hexaen-13-one]
ring closure, yield after HPLC ([1]; from Cc1cccc(C)c1-c1cc(OC[C@@H](C[C@H]2CCC(C)(C)O2)NCc2cnc3cc(C(C)(C)C)n(C)c3n2)nc(NS(=O)(=O)c2cccc(C(=O)O)c2)n1, DMF, 22.7 mM, 25.0 °C): 58%
EC50 [3]: < 1000 nM
Emax [3]: > 60%

Structure (SMILES): Cc1cccc(C)c1-c1cc2nc(n1)NS(=O)(=O)c1cccc(c1)C(=O)N(Cc1cnc3cc(C(C)(C)C(F)(F)F)n(C)c3n1)[C@H](CC13CC(C1)C3)CO2 [IV-102, (11R)-11-(1-bicyclo[1.1.1]pentanylmethyl)-6-(2,6-dimethylphenyl)-12-[[5-methyl-6-(2,2,2-trifluoro-1,1-dimethyl-ethyl)pyrrolo[2,3-b]pyrazin-3-yl]methyl]-2,2-dioxo-9-oxa-2λ^6-thia-3,5,12,19-tetrazatricyclo[12.3.1.14,8]nonadeca-1(18),4(19),5,7,14,16-hexaen-13-one]
ring closure, yield after HPLC ([1]; from Cc1cccc(C)c1-c1cc(OC[C@@H](CC23CC(C2)C3)NCc2cnc3cc(C(C)(C)C(F)(F)F)n(C)c3n2)nc(NS(=O)(=O)c2cccc(C(=O)O)c2)n1, DMF, 9.8 mM, 25.0 °C, 4.0 h): 65%
EC50 [3]: < 1000 nM
Emax [3]: > 60%

From patent US20250340574A1, “MODULATORS OF CYSTIC FIBROSIS TRANSMEMBRANE CONDUCTANCE REGULATOR” (Vertex Pharmaceuticals Incorporated, priority 2022, published 2025)
